From patent US12577213B2 (NINGBO COMBIREG PHARMACEUTICAL TECHNOLOGY CO., LTD., priority 2020, dated 2026) come the findings set out here.

Read-outs that look alike come from different tables or passages of the source.

Data set [1] deals with HS 578T (breast cancer). The data set can be described thus: NCI method SRB growth inhibition, HS 578T. Type of data set: cell-based. Particulars: Homo sapiens, HS578T, treated 48 hours, SRB stain. An excerpt: (§1) In this embodiment, the method of National Cancer Institute (NCI) was used to evaluate the anti-tumor activity of the embodiment compounds in the present disclosure. Nine representative cell lines were selected for activity evaluation, including A549 (non-small cell lung cancer), HCT116 (colon cancer), SF295 (central nervous system tumor), LOX-IMVI (melanoma), 786-0 (renal cancer), K562 (leukemia), PC-3 (prostate cancer), OVCAR-3 (ovarian cancer) and HS 578T (breast cancer).
(§2) The specific method was as follows: 60 tumor cell lines of 9 kinds of human cancers were used to evaluate the inhibitory activity of the compound in vitro. A test group, a parallel control group and a vehicle control group were set up. The parallel control group was fixed immediately before the compound was added; the cells in the test group were fixed after being treated with the compound for 48 hours; the vehicle control group was fixed after an equal volume of complete medium was added for 48 hours. Sulforhodamine B (SRB) was used to stain, and the OD value was measured at a wavelength of 515 nm. The specific calculation method was as follows: the OD value of the parallel control group was recorded as Tz, the OD value of the vehicle control group was recorded as C, and the OD value of the test group was recorded as (Ti). If Ti≥Tz, it means that the cells still grow after the drug was added, and the growth rate %=[(Ti−Tz)/(C−Tz)]×100; if Ti<Tz, it means that the cells are killed after the drug was added, and the growth rate %=[(Ti−Tz)/Tz]×100. Three parameters were used to evaluate the anti-tumor activity of compounds in this method: 50% growth inhibitory concentration (GI50): i.e. the compound concentration at [(Ti−Tz)/(C−Tz)]×100=50; complete growth inhibitory concentration (TGI): the compound concentration at Ti=Tz; the drug concentration required to kill 50% of the cells (LC50): i.e. the compound concentration at [(Ti−Tz)/Tz]×100=−50.
(§3) The inhibitory activities of the embodiment compounds on nine representative tumor cell lines were listed in detail in Table 1. Wherein, the GI50 value means “50% growth inhibition rate”, that is, the concentration of the compound to be tested when it can inhibit […] of cell growth; “ND” means not detected.
Background: The SRB assay estimates cell density from bound dye.

Data set [2] deals with LOX-IMVI (melanoma). The data set is described as follows: NCI method SRB growth inhibition, LOX-IMVI. Particulars: Homo sapiens, treated 48 hours, SRB stain. The format is cell-based.
Description: as §1, §2, §3

Data set [3] concerns HCT116 (colon cancer). The data set can be described thus: NCI method SRB growth inhibition, HCT116. The format is cell-based. The settings on record: Homo sapiens, HCT-116; HCT116, treated 48 hours, SRB stain.
Description: as §1, §2, §3

The subject of data set [4] is 786-0 (renal cancer). The data set can be described thus: NCI method SRB growth inhibition, 786-0. The format is cell-based. The settings on record: Homo sapiens; 786-0, treated 48 hours, SRB stain.
Description: as §1, §2, §3

In data set [5] the test system is PC-3 (prostate cancer). The data set can be described thus: NCI method SRB growth inhibition, PC-3. The format is cell-based. The settings on record: Homo sapiens; PC-3, treated 48 hours, SRB stain.
Description: as §1, §2, §3

A short description of data set [6]: Liver microsomes stability. The settings on record: 1 μM compound, 1 mg/mL human liver microsomes, 1 mM NADPH; for half-life at 1 μM: read-out: T½ of HLM. The format is in vitro ADME, human. As to the method: The compound to be tested with final concentration of 1 μM was incubated with 1 mg/mL of human liver microsomes and 1 mM of NADPH, and a group without NADPH was set as a negative control. The reaction mixture was quenched with methanol at five time points of 0, 5, 15, 30 and 60 min, respectively, then centrifuged at 2500 rpm for 20 min to precipitate proteins, and the resulting supernatant was analyzed by LC-MS/MS. The data was analyzed and the k value and half-life T1/2 was calculated, T1/2(min)=0.693/k.
Wherein, compounds a, b and c are active compounds disclosed in patent No. ZL201610154581.3.

The subject of data set [7] is SF295 (central nervous system tumor). The data set is described as follows: NCI method SRB growth inhibition, SF295. Type of data set: cell-based. The settings on record: Homo sapiens, SF-295; SF295, treated 48 hours, SRB stain.
Description: as §1, §2, §3

Data set [8] has as its system A549 (non-small cell lung cancer). The data set can be described thus: NCI method SRB growth inhibition, A549. The format is cell-based. The settings on record: Homo sapiens; A549, treated 48 hours, SRB stain.
Description: as §1, §2, §3

The subject of data set [9] is K562 (leukemia). The data set is described as follows: NCI method SRB growth inhibition, K562. The settings on record: Homo sapiens; K562, treated 48 hours, SRB stain. Type of data set: cell-based.
Description: as §1, §2, §3

In data set [10] the test system is OVCAR-3 (ovarian cancer). The data set can be described thus: NCI method SRB growth inhibition, OVCAR-3. Type of data set: cell-based. Particulars: Homo sapiens; OVCAR-3, treated 48 hours, SRB stain.
Description: as §1, §2, §3

In general, GI50 refers to the concentration that inhibits growth by half. Read a high GI50 as lower sensitivity of the cells. The microsomal CLint is the rate of metabolic loss divided by the concentration. Take `[2H]C([2H])([2H])Oc1cc(C(=O)Nc2cc3c(cc2Oc2cc(C)cc(C)c2)C(=O)N[C@@H](CC(=O)C(C)(C)P(=O)(OC)OC)C(=O)N3)c(Br)c(OC([2H])([2H])[2H])c1OC([2H])([2H])[2H]` [Compound 26, (S)-dimethyl-(4-8-(2-bromo-3,4,5-tris(trideuteromethoxy)benzoyl)-7-(3,5-dimethylphenoxy)-2,5-dioxo-2,3,4,5-tetrahydro-1H-benzo[e][1,4]diazepin-3-yl)-2-methyl-3-oxobutyl-2-yl)dimethyl phosphate]: the GI50 in data set [1] is 10 nM; in data set [2] it was 6.2 nM; in [3], 14.2 nM; in data set [4] it was 57.4 nM; in [5], below 5 nM; in data set [7], 42.7 nM. For the same compound, the GI50 in data set [8] was 13 nM; in [9] it was below 5 nM; in data set [10] it was 6 nM. Besides, the half-life at 1 μM in data set [6] is 217 min. The compound further yielded a microsomal CLint at 1 μM in [6] (human, human liver microsomes) of 3.2 µL/min/mg.

In the case of `[2H]C([2H])([2H])c1c(OC)cc(C(=O)Nc2cc3c(cc2Oc2cc(C)cc(C)c2)C(=O)N[C@@H](CC(=O)N(CC)CC)C(=O)N3)c(Cl)c1OC` [Compound 3, (S)-2-chloro-N-[3-[2-(diethylamino)-2-oxoethyl]-7-(3,5-dimethylphenoxy)-2,5-dioxo-2,3,4,5-tetrahydro-1H-benzo[e][1,4]diazepin-8-yl]-3,5-dimethoxy-4-(trideuteromethyl)benzamide], the 50% growth inhibitory concentration (GI50) in data set [1] turned out to be 91.9 nM; in data set [2] it was 18.4 nM; in data set [3], 11.2 nM; in data set [4], 110 nM; in [5] it was 43.9 nM; in data set [7], 53.2 nM. Also, the GI50 is below 5 nM in [8], 8.4 nM in [9] and 28.6 nM in data set [10]. Also, in data set [6], the “T½ of HLM” value came out at 38.3 min. Moreover, in [6], the microsomal CLint at 1 μM amounted to 18.1 µL/min/mg. Moreover, the half-life at 1 μM in data set [6] (human, human liver microsomes) was determined as 38 min.

On to `[2H]C([2H])([2H])OC(=O)C[C@@H]1NC(=O)c2cc(Oc3cc(C)cc(C)c3)c(NC(=O)c3cc(OC)c(OC)c(OC)c3Cl)cc2NC1=O` [Compound 9, (S)-2-[8-(2-chloro-3,4,5-trimethoxybenzamido)-7-(3,5-dimethylphenoxy)-2,5-dioxo-2,3,4,5-tetrahydro-1H-benzo[e][1,4]diazepin-3-yl]acetic acid trideuteromethyl ester], for which the GI50 in [1] was 40.5 nM; in data set [2], 13.9 nM; in data set [3], 14.8 nM; in data set [4] it was 44.8 nM; in data set [5] it was 13.1 nM; in [7], 15.2 nM. The GI50 in data set [8] worked out at 23 nM; in [9], 17 nM; in data set [10], 8.6 nM. The compound also showed a microsomal CLint at 1 μM in data set [6] of 5.9 µL/min/mg. For the same compound, the half-life at 1 μM in data set [6] (human, human liver microsomes) came out at 117 min.

As to `[2H]C([2H])([2H])Oc1cc(C(=O)Nc2cc3c(cc2Oc2cc(C)cc(C)c2)C(=O)N(C)[C@@H](CC(=O)N(OC([2H])([2H])[2H])C([2H])([2H])[2H])C(=O)N3)c(Br)c(OC([2H])([2H])[2H])c1OC([2H])([2H])[2H]` [Compound 34], the GI50 in data set [1], in data set [2], in data set [3], in data set [4], in [5] and in data set [7] was below 5 nM each time. For the same compound, the GI50 in data set [8], in data set [9] and in [10] was below 5 nM each time. For the same compound, in data set [6], the half-life at 1 μM came out at 72.2 min. The same compound gave a microsomal CLint at 1 μM in data set [6] (human, human liver microsomes) of 9.6 µL/min/mg.

Consider `[2H]C([2H])([2H])Oc1cc(C(=O)Nc2cc3c(cc2Oc2cc(C)cc(C)c2)C(=O)N(C)[C@@H](CC(=O)N2CCN(C)CC2)C(=O)N3)c(Br)c(OC([2H])([2H])[2H])c1OC([2H])([2H])[2H]` [Compound 28], for which the GI50 in [1] is below 5 nM; in [2], below 5 nM; in [3] it was below 5 nM; in data set [4] it was 66 nM; in data set [5], below 5 nM; in data set [7] it was 18 nM. The GI50 in [8], in data set [9] and in data set [10] was below 5 nM throughout. For the same compound, the half-life at 1 μM in data set [6] was found to be 41.8 min. This compound also gave a microsomal CLint at 1 μM in data set [6] (human, human liver microsomes) of 16.8 µL/min/mg.

Turning to `[2H]c1c(C)c([2H])c(Oc2cc3c(cc2NC(=O)c2cc(OC)c(OC)c(OC)c2Cl)NC(=O)[C@H](CC(=O)N(CC)CC)NC3=O)c([2H])c1C` [Compound 24, (S)-2-chloro-N-[3-[2-(diethylamino)-2-oxoethyl]-7-(3,5-dimethyl-2,4,6-trideuterophenoxy)-2,5-dioxo-2,3,4,5-tetrahydro-1H-benzo[e][1,4]diazepin-8-yl]-3,4,5-trimethoxybenzamide], the concentration for 50% growth inhibition (GI50) in data set [1] was 188 nM; in data set [2], 65.8 nM; in data set [3], 123 nM; in data set [4], 276 nM; in data set [5], 39.5 nM; in data set [7] it was 135 nM. The concentration for 50% growth inhibition (GI50) in data set [8] worked out at 207 nM; in data set [9] it was 25.5 nM; in data set [10], 87.6 nM. Besides, in data set [6], the intrinsic metabolic clearance (microsomal CLint) at 1 μM was 28.4 µL/min/mg. In data set [6] (human, human liver microsomes), the half-life at 1 μM is 24.4 min.

`[2H]C([2H])([2H])Oc1cc(C(=O)Nc2cc3c(cc2Oc2cc(C)cc(C)c2)C(=O)N[C@@H](CC(=O)N(C)OC([2H])([2H])[2H])C(=O)N3)c(Br)c(OC([2H])([2H])[2H])c1OC([2H])([2H])[2H]` [Compound 40]: the 50% growth inhibitory concentration (GI50) in [1], in data set [2], in data set [3], in data set [4], in [5] and in data set [7] was below 5 nM throughout. For the same compound, the GI50 in data set [8], in [9] and in data set [10] was below 5 nM each time. Besides, the microsomal CLint at 1 μM in data set [6] was 9 µL/min/mg. In addition, the half-life at 1 μM in data set [6] (human, human liver microsomes) turned out to be 77 min.

`[2H]C([2H])([2H])Oc1cc(C(=O)Nc2cc3c(cc2Oc2cc(C)cc(C)c2)C(=O)N(C)[C@@H](CC(=O)N2CCC(F)(F)CC2)C(=O)N3)c(Cl)c(OC([2H])([2H])[2H])c1OC([2H])([2H])[2H]` [Compound 17, (S)-2-chloro-N-[3-[2-(4,4-difluoropiperidin-1-yl)-2-oxoethyl]-7-(3,5-dimethylphenoxy)-4-methyl-2,5-dioxo-2,3,4,5-tetrahydro-1H-benzo[e][1,4]diazepin-8-yl]-3,4,5-tris(trideuteromethoxy)benzamide]: the GI50 in data set [1] was 5.6 nM; in data set [2] it was below 5 nM; in data set [3], 44.9 nM; in data set [4] it was 10 nM; in data set [5], below 5 nM; in data set [7], 8 nM. In addition, the values for the GI50 in [8], in data set [9] and in data set [10] were 15.8 nM, below 5 nM and 8.4 nM, respectively. Besides, in data set [6], the microsomal CLint at 1 μM turned out to be 34.5 µL/min/mg. In data set [6] (human, human liver microsomes), the half-life at 1 μM is 20.1 min.
